A word on the IC50: it is the point on the concentration scale where inhibition reaches its midpoint.

Consider 30 compounds from patent US12692223B2, “Phenyl-sulfamoyl-benzoic acid derivatives as ERAP1-modulators” (GREY WOLF THERAPEUTICS LIMITED, priority 2021, dated 2026).

Molecules are shown by their SMILES.

The target in the experiment is T1, ERAP1 (Homo sapiens, UniProt Q9NZ08).
T1 construct: Purified ERAP1(37-941)-10His (ERAP1)
T1 sequence (Q9NZ08 37-941): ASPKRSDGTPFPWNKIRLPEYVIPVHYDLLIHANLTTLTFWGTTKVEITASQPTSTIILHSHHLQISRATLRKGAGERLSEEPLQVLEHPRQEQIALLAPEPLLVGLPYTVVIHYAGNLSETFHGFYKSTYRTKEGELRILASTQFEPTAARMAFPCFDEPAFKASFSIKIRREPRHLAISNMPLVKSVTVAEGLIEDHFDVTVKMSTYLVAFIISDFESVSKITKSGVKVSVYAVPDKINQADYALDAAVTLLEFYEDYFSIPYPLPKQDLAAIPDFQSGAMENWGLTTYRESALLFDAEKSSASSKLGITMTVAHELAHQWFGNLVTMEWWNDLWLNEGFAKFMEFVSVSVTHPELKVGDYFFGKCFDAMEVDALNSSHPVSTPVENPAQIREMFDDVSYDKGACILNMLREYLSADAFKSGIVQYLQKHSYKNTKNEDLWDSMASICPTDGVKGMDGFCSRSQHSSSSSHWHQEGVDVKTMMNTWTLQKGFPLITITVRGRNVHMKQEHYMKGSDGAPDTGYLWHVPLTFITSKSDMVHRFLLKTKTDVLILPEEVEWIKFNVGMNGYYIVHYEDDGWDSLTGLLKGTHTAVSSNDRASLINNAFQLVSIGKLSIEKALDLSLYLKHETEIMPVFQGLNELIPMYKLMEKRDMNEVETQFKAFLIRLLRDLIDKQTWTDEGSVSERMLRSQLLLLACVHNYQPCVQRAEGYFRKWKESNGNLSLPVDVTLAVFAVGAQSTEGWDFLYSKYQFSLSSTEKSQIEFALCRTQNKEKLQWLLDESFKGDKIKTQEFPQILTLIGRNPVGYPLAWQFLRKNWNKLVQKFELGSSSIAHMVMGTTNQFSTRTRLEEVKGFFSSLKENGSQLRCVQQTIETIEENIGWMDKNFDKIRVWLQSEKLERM
Briefly: ERAP1 mediated hydrolysis of an amide substrate measured in a biochemical system (10-mer inhibition assay). As to conditions: purified ERAP1(37-941)-10His; 10-mer substrate; 23° C. for 1 h; excitation 279 nm, emission 355 nm; read-out: IC50 vs Decapeptide WRVYEKC(Dnp)ALK-acid (where Dnp is Dinitrophenyl maleimide) (10-mer). How it is done: Biological Assay 1: ERAP1 Mediated Hydrolysis of an Amide Substrate Measured in a Biochemical System
• 1× Assay buffer (AB): 25 mM Bis-tris propane, 0.05% w/v • Hydroxypropylmethylcellulose pH 7.75 made with Optima grade water • Decapeptide WRVYEKC(Dnp)ALK-acid (where Dnp is Dinitrophenyl maleimide) (10-mer) • L-Leucine 7-amido-4-methylcoumarin (L-AMC) • Purified ERAP1(37-941)-10His (ERAP1) Assay Procedure:
12.5 μL ERAP1 enzyme in 1×AB was combined with 250 nL test compound in DMSO. 12.5 μL of either 240 μM L-AMC in 1×AB or 100 μM 10-mer in 1×AB was added to the reaction and incubated at 23° C. for 1 h. For detection, plates were read at excitation 365 nm and emission 442 nm (L-AMC) or excitation 279 nm and emission 355 nm (10-mer). Compound IC50 was determined using a 4-parameter equation.
On to `N#Cc1cc(NS(=O)(=O)c2cc(C(=O)O)ccc2C2CC2)c(OC2CCC(F)(F)C2)cc1Cl` (single isomer, unassigned) [Example 141, 3-(N-(4-chloro-5-cyano-2-((3,3-difluorocyclopentyl)oxy)phenyl)sulfa-moyl)-4-cyclopropylbenzoic acid], for which the IC50 is under 1 nM.
On to `N#Cc1cc(NS(=O)(=O)c2cc(C(=O)O)ccc2C2CC2)c(OCC2(C#N)CCC2)cc1Cl` [Example 82, 3-(N-(4-chloro-5-cyano-2-((1-cyanocyclobutyl)methoxy)phenyl)sulfamoyl)-4-cyclopropylbenzoic acid], for which the IC50 was under 1 nM.
As to `CC1(COc2cc(Cl)c(C#N)cc2NS(=O)(=O)c2cc(C(=O)O)ccc2C2CC2)COC1` [Example 32, 3-(N-(4-chloro-5-cyano-2-((3-methyloxetan-3-yl)methoxy)phenyl)sulfamoyl)-4-cyclopropylbenzoic acid], the IC50 fell in the range of 1 to 5 nM.
Regarding `Cc1oncc1-c1cc(NS(=O)(=O)c2cc(C(=O)O)ccc2C2CC2)c(OC2CCC2)cc1Cl` [Example 60, 3-(N-(4-chloro-2-cyclobutoxy-5-(5-methylisoxazol-4-yl)phenyl)sulfamoyl)-4-cyclopropylbenzoic acid], the IC50 was under 1 nM.
In the case of `O=C(O)c1ccc(C2CC2)c(S(=O)(=O)Nc2cc(-c3ccns3)c(F)cc2OC2CCCC2)c1` [Example 21, 3-(N-(2-(cyclopentyloxy)-4-fluoro-5-(isothiazol-5-yl)phenyl)sulfamoyl)-4-cyclopropylbenzoic acid] it was 1 to 5 nM; in that of `CO[C@@H]1CCC[C@@H]1Oc1cc(Cl)c(C#N)cc1NS(=O)(=O)c1cc(C(=O)O)ccc1C1CC1` (single isomer, unassigned) [Example 142, 3-(N-(4-chloro-5-cyano-2-((cis-2-methoxycyclopentyl)oxy)phenyl)sulfa-moyl)-4-cyclopropylbenzoic acid], under 1 nM; in that of `COC1CCC1Oc1cc(Cl)c(C#N)cc1NS(=O)(=O)c1cc(C(=O)O)ccc1C1CC1` (racemic) [Example 119, 3-(N-(4-chloro-5-cyano-2-(trans-2-methoxycyclobutoxy)phenyl)sulfamoyl)-4-cyclopropylbenzoic acid], under 1 nM.
As for `C[C@H](Oc1cc(Cl)c(C#N)cc1NS(=O)(=O)c1cc(C(=O)O)ccc1C1CC1)C1CCC1` [Example 70, (S)-3-(N-(4-chloro-5-cyano-2-(1-cyclobutylethoxy)phenyl)sulfamoyl)-4-cyclopropylbenzoic acid], the half-maximal inhibitory concentration (IC50) was under 1 nM.
As to `CC1CCC1Oc1cc(Cl)c(C#N)cc1NS(=O)(=O)c1cc(C(=O)O)ccc1C1CC1` (single isomer, unassigned) [Example 121, 3-(N-(4-chloro-5-cyano-2-(2-methylcyclobutoxy)phenyl)sulfamoyl)-4-cyclopropylbenzoic acid], the IC50 is under 1 nM.
In the case of `CC1(C)CCC[C@H]1Oc1cc(F)c(-n2cnnn2)cc1NS(=O)(=O)c1cc(C(=O)O)ccc1C1CC1` [Example 125, (R)-4-cyclopropyl-3-(N-(2-((2,2-dimethylcyclopentyl)oxy)-4-fluoro-5-(1H-tetrazol-1-yl)phenyl)sulfamoyl)benzoic acid] it was under 1 nM; in that of `N#Cc1cc(NS(=O)(=O)c2cc(C(=O)O)ccc2C2CC2)c(O[C@@H]2CCOC2)cc1Cl` [Example 48, (R)-3-(N-(4-chloro-5-cyano-2-((tetrahydrofuran-3-yl)oxy)phenyl)sulfamoyl)-4-cyclopropylbenzoic acid], under 1 nM.
For `N#Cc1cc(NS(=O)(=O)c2cc(C(=O)O)ccc2C2CC2)c(OC2CC3(COC3)C2)cc1Cl` [Example 52, 3-(N-(2-((2-oxaspiro[3.3]heptan-6-yl)oxy)-4-chloro-5-cyanophenyl)sulfamoyl)-4-cyclopropylbenzoic acid], the IC50 is over 5 nM.
In the case of `N#Cc1cc(NS(=O)(=O)c2cc(C(=O)O)ccc2C2CC2)c(OCC2CNC2)cc1Cl` [Example 43, 3-(N-(2-(azetidin-3-ylmethoxy)-4-chloro-5-cyanophenyl)sulfamoyl)-4-cyclopropylbenzoic acid] it was over 5 nM; in that of `N#Cc1cc(NS(=O)(=O)c2cc(C(=O)O)ccc2C2CC2)c(OCC2CC(F)(F)C2)cc1Cl` [Example 31, 3-(N-(4-chloro-5-cyano-2-((3,3-difluorocyclobutyl)methoxy)phenyl)sulfamoyl)-4-cyclopropylbenzoic acid], 1 to 5 nM.
Take `CC1(C)CCC1Oc1cc(Cl)c(C#N)cc1NS(=O)(=O)c1cc(C(=O)O)ccc1C1CC1` (single isomer, unassigned) [Example 94, 3-(N-(4-chloro-5-cyano-2-(2,2-dimethylcyclobutoxy)phenyl)-sulfamoyl)-4-cyclopropylbenzoic acid]: the IC50 was under 1 nM.
In the case of `N#Cc1cc(NS(=O)(=O)c2c(C3CC3)ccc(C(=O)O)c2F)c(OC2CCCC2)cc1Cl` [Example 67, 3-(N-(4-chloro-5-cyano-2-(cyclopentyloxy)phenyl)sulfamoyl)-4-cyclopropyl-2-fluorobenzoic acid] it was over 5 nM; in that of `CO[C@@H]1CCC[C@@H]1Oc1cc(Cl)c(C#N)cc1NS(=O)(=O)c1cc(C(=O)O)ccc1C1CC1` (single isomer, unassigned) [Example 143, 3-(N-(4-chloro-5-cyano-2-((cis-2-methoxycyclopentyl)oxy)phenyl)sulfa-moyl)-4-cyclopropylbenzoic acid], 1 to 5 nM.
Take `CCc1ccc(C(=O)O)cc1S(=O)(=O)Nc1cc(C(F)(F)F)ccc1OC1CCCC1` [Example 5, 3-(N-(2-(cyclopentyloxy)−5-(trifluoromethyl)phenyl)sulfamoyl)-4-ethylbenzoic acid]: the IC50 was over 5 nM.
In the case of `CCc1ccc(C(=O)O)cc1S(=O)(=O)Nc1cc(C(F)(F)F)ccc1OC1CCC1` [Example 7, 3-(N-(2-cyclobutoxy-5-(trifluoromethyl)phenyl)sulfamoyl)-4-ethylbenzoic acid], the IC50 was over 5 nM.
The value for `N#Cc1cc(NS(=O)(=O)c2cc(C(=O)O)ccc2C2CC2)c(OCC23C4C5C6C4C2C6C53)cc1Cl` (stereo not drawn) [Example 79, 3-(N-(4-chloro-2-(cuban-1-ylmethoxy)-5-cyanophenyl)sulfamoyl)-4-cyclopropylbenzoic acid] was under 1 nM; that for `CC1CCCC1Oc1cc(Cl)c(C#N)cc1NS(=O)(=O)c1cc(C(=O)O)ccc1C1CC1` (racemic) [Example 90, 3-(N-(4-chloro-5-cyano-2-((trans-2-methylcyclopentyl)oxy)phenyl)sulfamoyl)-4-cyclopropylbenzoic acid] was under 1 nM.
Take `N#Cc1ccc(OC2CCCC2)c(NS(=O)(=O)c2cc(C(=O)O)ccc2C2CC2)c1` [Example 6, 3-(N-(5-cyano-2-(cyclopentyloxy)phenyl)sulfamoyl)-4-cyclopropylbenzoic acid]: the IC50 lay within 1 to 5 nM.
In the case of `N#Cc1cc(NS(=O)(=O)c2cc(C(=O)O)ccc2C2CC2)c(OC2CC3(CC3)C2)cc1Cl` [Example 34, 3-(N-(4-chloro-5-cyano-2-(spiro[2.3]hexan-5-yloxy)phenyl)sulfamoyl)-4-cyclopropylbenzoic acid] it was under 1 nM.
The value for `COC1CCCC1Oc1cc(Cl)c(C#N)cc1NS(=O)(=O)c1cc(C(=O)O)ccc1C1CC1` (single isomer, unassigned) [Example 104, 3-(N-(4-chloro-5-cyano-2-((trans-2-methoxycyclopentyl)-oxy)phenyl)sulfamoyl)-4-cyclopropylbenzoic acid] was over 5 nM; that for `N#Cc1cc(NS(=O)(=O)c2cc(C(=O)O)ccc2C2CC2)c(O[C@H]2C[C@@H](F)C2)cc1Cl` [Example 71, 3-(N-(4-chloro-5-cyano-2-(cis-3-fluorocyclobutoxy)phenyl)sulfamoyl)-4-cyclopropylbenzoic acid] was under 1 nM.
The value for `N#Cc1cc(NS(=O)(=O)c2cc(C(=O)O)ccc2C2CC2)c(OC2CCC(O)C2)cc1Cl` (racemic) [Example 110, 3-(N-(4-chloro-5-cyano-2-((cis-3-hydroxycyclopentyl)oxy)phenyl)sulfa-moyl)-4-cyclopropylbenzoic acid] was under 1 nM; that for `N#Cc1cc(NS(=O)(=O)c2cc(C(=O)O)ccc2C2CC2)c(OCC23CC(C2)C3)cc1Cl` [Example 76, 3-(N-(2-(bicyclo[1.1.1]pentan-1-ylmethoxy)− 4-chloro-5-cyanophenyl)sulfamoyl)-4-cyclopropylbenzoic acid] was under 1 nM; that for `N#Cc1cc(NS(=O)(=O)c2cc(C(=O)O)ccc2C2CC2)c(OC2CCC(O)C2)cc1Cl` (racemic) [Example 111, 3-(N-(4-chloro-5-cyano-2-((trans-3-hydroxycyclopentyl)oxy)phenyl)sulfa-moyl)-4-cyclopropylbenzoic acid] was 1 to 5 nM.
`N#Cc1cc(NS(=O)(=O)c2cc(C(=O)O)ccc2C2CC2)c(O[C@H]2C[C@@H](O)C2)cc1Cl` [Example 112, 3-(N-(4-chloro-5-cyano-2-(cis-3-hydroxycyclobutoxy)phenyl)sulfamoyl)-4-cyclopropylbenzoic acid]: the IC50 was over 5 nM.
In the case of `N#Cc1cc(NS(=O)(=O)c2cc(C(=O)O)ccc2C2CC2)c(OC2CCC(F)(F)C2)cc1Cl` (stereo not drawn) [Example 134, 3-(N-(4-chloro-5-cyano-2-((3,3-difluorocyclopentyl)oxy)phenyl)sulfa-moyl)-4-cyclopropylbenzoic acid] it was under 1 nM.
